Source: doi:10.1101/2023.11.24.568596v1 (biorxiv, 2023)
Values belong to the molecule of their own block, whether it stands above or below them.

Key:
Details in all cases: binder
DRAK1 = target: T1, DRAK1 (Homo sapiens, UniProt Q9UEE5)
T1 sequence (Q9UEE5 1-414): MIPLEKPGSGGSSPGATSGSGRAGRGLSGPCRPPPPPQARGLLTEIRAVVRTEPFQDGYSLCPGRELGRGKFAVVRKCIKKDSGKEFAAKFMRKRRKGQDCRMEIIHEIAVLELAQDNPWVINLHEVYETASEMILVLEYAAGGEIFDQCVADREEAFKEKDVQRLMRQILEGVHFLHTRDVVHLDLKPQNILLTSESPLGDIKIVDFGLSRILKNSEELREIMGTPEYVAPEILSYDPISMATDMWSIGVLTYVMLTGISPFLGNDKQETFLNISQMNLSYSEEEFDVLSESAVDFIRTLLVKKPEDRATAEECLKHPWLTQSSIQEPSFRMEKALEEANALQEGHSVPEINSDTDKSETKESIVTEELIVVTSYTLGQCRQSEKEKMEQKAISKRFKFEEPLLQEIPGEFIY

NEK1 = target: T2, NEK1 (Homo sapiens, UniProt Q96PY6)
T2 sequence (Q96PY6 1-1258): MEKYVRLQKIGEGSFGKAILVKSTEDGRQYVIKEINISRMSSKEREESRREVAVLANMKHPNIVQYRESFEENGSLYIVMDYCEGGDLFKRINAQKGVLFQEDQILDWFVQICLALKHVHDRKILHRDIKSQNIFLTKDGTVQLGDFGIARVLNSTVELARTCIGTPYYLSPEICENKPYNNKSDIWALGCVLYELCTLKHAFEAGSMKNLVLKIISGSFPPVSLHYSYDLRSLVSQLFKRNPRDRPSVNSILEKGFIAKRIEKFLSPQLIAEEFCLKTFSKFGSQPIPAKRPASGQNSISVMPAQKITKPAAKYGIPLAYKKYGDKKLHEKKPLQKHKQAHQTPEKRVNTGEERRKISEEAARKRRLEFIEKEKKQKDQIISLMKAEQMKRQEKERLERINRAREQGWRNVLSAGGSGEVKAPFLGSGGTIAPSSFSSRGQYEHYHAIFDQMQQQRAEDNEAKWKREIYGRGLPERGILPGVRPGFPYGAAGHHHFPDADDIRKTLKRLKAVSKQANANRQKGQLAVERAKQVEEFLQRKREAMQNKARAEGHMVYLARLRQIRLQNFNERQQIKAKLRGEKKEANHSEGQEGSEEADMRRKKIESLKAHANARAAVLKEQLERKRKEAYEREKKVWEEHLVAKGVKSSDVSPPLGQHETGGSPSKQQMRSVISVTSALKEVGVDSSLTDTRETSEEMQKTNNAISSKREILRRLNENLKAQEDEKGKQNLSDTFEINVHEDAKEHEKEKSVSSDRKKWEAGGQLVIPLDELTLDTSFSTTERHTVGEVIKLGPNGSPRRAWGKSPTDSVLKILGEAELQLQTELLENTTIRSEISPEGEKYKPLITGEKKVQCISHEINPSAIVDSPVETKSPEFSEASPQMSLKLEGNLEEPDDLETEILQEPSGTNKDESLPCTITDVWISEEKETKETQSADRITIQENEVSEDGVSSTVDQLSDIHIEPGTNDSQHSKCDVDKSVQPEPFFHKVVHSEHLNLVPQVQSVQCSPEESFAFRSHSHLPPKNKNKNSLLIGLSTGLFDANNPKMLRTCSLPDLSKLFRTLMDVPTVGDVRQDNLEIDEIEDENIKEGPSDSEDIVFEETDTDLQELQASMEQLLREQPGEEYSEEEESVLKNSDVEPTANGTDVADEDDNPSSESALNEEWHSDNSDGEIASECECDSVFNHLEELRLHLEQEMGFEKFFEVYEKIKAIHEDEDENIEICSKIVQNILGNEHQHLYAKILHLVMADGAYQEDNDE

PIM3 = PIM3 (Homo sapiens, UniProt Q86V86)
DYRK1A = DYRK1A (Homo sapiens, UniProt Q13627)
EphA2 = EphA2 (Homo sapiens, UniProt P29317)
EphA2, sequence (P29317 whole entry): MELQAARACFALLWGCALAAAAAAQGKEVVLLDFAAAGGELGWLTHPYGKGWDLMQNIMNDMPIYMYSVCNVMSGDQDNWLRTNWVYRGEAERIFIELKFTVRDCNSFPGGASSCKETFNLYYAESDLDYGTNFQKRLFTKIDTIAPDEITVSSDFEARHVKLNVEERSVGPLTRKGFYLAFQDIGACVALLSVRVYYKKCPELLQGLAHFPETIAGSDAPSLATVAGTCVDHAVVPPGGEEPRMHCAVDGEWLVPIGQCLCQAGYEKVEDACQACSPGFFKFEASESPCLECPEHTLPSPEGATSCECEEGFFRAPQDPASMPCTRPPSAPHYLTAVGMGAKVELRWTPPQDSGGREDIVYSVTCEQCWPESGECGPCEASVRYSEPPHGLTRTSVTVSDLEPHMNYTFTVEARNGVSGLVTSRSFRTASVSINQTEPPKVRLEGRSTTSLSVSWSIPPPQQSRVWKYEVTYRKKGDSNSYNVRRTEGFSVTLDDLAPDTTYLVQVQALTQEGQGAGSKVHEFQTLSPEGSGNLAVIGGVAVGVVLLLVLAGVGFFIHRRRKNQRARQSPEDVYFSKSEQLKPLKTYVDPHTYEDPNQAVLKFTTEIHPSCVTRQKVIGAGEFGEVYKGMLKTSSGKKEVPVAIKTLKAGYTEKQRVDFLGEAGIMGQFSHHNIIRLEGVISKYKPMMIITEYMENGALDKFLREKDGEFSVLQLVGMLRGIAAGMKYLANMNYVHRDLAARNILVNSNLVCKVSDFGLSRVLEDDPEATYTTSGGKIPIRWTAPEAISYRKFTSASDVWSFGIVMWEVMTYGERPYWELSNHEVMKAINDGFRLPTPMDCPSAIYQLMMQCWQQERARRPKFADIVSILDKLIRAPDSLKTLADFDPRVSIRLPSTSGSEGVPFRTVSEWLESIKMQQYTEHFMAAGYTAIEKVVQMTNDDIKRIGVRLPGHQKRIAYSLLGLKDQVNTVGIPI

EphA5 = EphA5 (Homo sapiens, UniProt P54756)
EphA5, sequence (P54756 whole entry): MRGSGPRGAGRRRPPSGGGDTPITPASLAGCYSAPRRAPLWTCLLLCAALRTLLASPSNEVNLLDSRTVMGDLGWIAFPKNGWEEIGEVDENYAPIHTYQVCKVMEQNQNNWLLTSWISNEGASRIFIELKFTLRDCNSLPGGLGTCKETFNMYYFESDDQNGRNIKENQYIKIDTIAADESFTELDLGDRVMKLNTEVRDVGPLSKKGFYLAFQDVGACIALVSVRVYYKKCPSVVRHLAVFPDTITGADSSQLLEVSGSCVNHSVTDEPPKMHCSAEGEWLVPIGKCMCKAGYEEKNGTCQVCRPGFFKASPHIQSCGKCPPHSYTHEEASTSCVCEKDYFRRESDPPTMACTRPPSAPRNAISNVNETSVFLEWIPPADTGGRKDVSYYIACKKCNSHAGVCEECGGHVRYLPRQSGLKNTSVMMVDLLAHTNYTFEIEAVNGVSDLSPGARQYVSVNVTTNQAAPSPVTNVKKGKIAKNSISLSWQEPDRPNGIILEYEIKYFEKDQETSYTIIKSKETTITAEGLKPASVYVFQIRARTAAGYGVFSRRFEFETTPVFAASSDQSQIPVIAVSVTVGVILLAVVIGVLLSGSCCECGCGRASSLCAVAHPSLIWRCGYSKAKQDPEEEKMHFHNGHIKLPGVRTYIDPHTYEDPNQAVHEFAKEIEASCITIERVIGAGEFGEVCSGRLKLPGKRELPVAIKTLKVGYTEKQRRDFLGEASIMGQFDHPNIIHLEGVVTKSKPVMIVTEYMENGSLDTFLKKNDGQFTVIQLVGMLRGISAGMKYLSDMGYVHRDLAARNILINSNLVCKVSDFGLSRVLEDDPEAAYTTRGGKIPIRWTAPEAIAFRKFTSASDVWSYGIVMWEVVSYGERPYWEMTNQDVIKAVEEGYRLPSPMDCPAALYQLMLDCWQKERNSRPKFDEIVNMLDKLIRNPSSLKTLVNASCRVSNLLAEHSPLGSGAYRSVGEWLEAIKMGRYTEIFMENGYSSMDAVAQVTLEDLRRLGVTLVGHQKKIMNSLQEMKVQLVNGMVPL

Haspin = target: T3, Haspin (Homo sapiens, UniProt Q8TF76)
T3 sequence (Q8TF76 1-798): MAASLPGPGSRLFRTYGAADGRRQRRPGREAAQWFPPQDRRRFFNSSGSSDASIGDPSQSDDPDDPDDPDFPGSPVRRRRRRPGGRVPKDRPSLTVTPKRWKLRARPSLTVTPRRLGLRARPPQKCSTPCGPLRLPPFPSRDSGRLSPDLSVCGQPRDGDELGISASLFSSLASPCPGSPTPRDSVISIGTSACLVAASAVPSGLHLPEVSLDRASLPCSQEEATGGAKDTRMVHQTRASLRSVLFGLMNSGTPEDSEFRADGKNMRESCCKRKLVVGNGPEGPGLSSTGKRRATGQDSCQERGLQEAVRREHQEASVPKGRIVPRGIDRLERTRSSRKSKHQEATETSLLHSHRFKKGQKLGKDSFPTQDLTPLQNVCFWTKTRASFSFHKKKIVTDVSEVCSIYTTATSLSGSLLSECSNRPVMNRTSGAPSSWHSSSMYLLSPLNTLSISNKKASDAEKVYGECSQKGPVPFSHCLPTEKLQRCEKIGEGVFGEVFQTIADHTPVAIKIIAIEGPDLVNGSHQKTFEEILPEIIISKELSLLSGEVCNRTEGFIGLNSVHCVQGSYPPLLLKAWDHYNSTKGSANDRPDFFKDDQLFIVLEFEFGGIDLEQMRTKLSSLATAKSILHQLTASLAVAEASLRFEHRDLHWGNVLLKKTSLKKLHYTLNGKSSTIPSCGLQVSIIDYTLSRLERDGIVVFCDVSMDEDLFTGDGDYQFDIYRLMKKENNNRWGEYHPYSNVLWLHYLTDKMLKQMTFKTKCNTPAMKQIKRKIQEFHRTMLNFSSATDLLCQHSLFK

AKT3 = AKT3 (Homo sapiens, UniProt Q9Y243)
AKT3, sequence (Q9Y243 whole entry): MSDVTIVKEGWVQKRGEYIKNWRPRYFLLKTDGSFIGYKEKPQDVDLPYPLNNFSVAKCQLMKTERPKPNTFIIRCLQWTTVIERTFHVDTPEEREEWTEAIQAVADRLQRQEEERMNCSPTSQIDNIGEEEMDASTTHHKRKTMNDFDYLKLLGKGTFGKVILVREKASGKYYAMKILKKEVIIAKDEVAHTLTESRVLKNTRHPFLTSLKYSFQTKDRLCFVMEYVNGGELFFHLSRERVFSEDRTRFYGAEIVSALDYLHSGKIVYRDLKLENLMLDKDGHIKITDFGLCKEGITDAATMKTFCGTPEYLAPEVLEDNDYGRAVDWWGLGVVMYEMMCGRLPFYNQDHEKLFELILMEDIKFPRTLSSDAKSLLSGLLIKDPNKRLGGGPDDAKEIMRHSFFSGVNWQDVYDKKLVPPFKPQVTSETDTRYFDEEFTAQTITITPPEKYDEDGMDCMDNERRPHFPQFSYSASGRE

- ΔTm 32 (DRAK1): 5.1 °C
- ΔTm 32 (NEK1): -3.0 °C
- ΔTm 32 (PIM3): 1.5 °C
- ΔTm 32 (DYRK1A): -0.4 °C
- ΔTm 32 (EphA2): 7.9 °C
- ΔTm 32 (EphA5): 6.6 °C
- ΔTm 32 (Haspin): -1.5 °C
- ΔTm 32 (AKT3): 3.6 °C
Structure (SMILES): Cc1cccc(-c2ccc(-c3cc4cnc(Nc5ccc(C)c(O)c5)nc4n(CCCCN)c3=O)c(Cl)c2)n1 [compound 32, 8-(4-Aminobutyl)-6-(2-chloro-4-(6-methylpyridin-2-yl)phenyl)-2-((3-hydroxy-4-methylphenyl)amino)pyrido[2,3-d]pyrimidin-7(8H)-one]

- ΔTm 31 (DRAK1): 4.5 °C
- ΔTm 31 (NEK1): -3.3 °C
- ΔTm 31 (PIM3): 4.5 °C
- ΔTm 31 (DYRK1A): -1.0 °C
- ΔTm 31 (EphA2): 8.1 °C
- ΔTm 31 (EphA5): 6.2 °C
- ΔTm 31 (Haspin): -0.4 °C
- ΔTm 31 (AKT3): 4.2 °C
Structure (SMILES): Cc1cccc(-c2ccc(-c3cc4cnc(Nc5ccc(O)cc5)nc4n(CCCCN)c3=O)c(Cl)c2)n1 [compound 31, 8-(4-Aminobutyl)-6-(2-chloro-4-(6-methylpyridin-2-yl)phenyl)-2-((4-hydroxyphenyl)amino) pyrido[2,3-d]pyrimidin-7(8H)-one]

- ΔTm 30 (DRAK1): 4.0 °C
- ΔTm 30 (NEK1): -3.1 °C
- ΔTm 30 (PIM3): -0.8 °C
- ΔTm 30 (DYRK1A): -1.8 °C
- ΔTm 30 (EphA2): 7.7 °C
- ΔTm 30 (EphA5): 6.6 °C
- ΔTm 30 (Haspin): 0.4 °C
- ΔTm 30 (AKT3): 4.3 °C
Structure (SMILES): Cc1cccc(-c2ccc(-c3cc4cnc(Nc5ccc(CCCO)cc5)nc4n(CCCCN)c3=O)c(Cl)c2)n1 [compound 30, 8-(4-Aminobutyl)-6-(2-chloro-4-(6-methylpyridin-2-yl)phenyl)-2-((4-(3-hydroxypropyl)phenyl)amino)pyrido[2,3-d]pyrimidin-7(8H)-one]

More lines, now with the values behind:

Structure (SMILES): Cc1cccc(-c2ccc(-c3cc4cnc(NCCCN5CCCC5=O)nc4n(CCCCN)c3=O)c(Cl)c2)n1 [compound 27, MR30]
- ΔTm MR30 (27) (DRAK1): -0.4 °C
- ΔTm MR30 (27) (NEK1): -0.3 °C
- ΔTm MR30 (27) (PIM3): -2.7 °C
- ΔTm MR30 (27) (DYRK1A): -1.2 °C
- ΔTm MR30 (27) (EphA2): 3.6 °C
- ΔTm MR30 (27) (EphA5): 2.8 °C
- ΔTm MR30 (27) (Haspin): -0.7 °C
- ΔTm MR30 (27) (AKT3): 0.9 °C

Structure (SMILES): Cc1cccc(-c2ccc(-c3cc4cnc(Nc5cc(C(F)(F)F)ccc5C)nc4n(CCCCN)c3=O)c(Cl)c2)n1 [compound 28, 8-(4-Aminobutyl)-6-(2-chloro-4-(6-methylpyridin-2-yl)phenyl)-2-((2-methyl-5-(trifluoromethyl)phenyl)amino)pyrido[2,3-d]pyrimidin-7(8H)-one]
- ΔTm 28 (DRAK1): 0.3 °C
- ΔTm 28 (NEK1): 0.2 °C
- ΔTm 28 (PIM3): 0.5 °C
- ΔTm 28 (DYRK1A): 0.2 °C
- ΔTm 28 (EphA2): 4.5 °C
- ΔTm 28 (EphA5): 4.5 °C
- ΔTm 28 (Haspin): -1.3 °C
- ΔTm 28 (AKT3): 0.3 °C

Structure (SMILES): Cc1cccc(-c2ccc(-c3cc4cnc(NCCCN5CCNCC5)nc4n(CCCCN)c3=O)c(Cl)c2)n1 [compound 29, 8-(4-Aminobutyl)-6-(2-chloro-4-(6-methylpyridin-2-yl)phenyl)-2-((3-(piperazin-1-yl)propyl)amino)pyrido[2,3-d]pyrimidin-7(8H)-one]
- ΔTm 29 (DRAK1): 1.3 °C
- ΔTm 29 (NEK1): 0.3 °C
- ΔTm 29 (PIM3): 0.0 °C
- ΔTm 29 (DYRK1A): -0.3 °C
- ΔTm 29 (EphA2): 5.1 °C
- ΔTm 29 (EphA5): 2.7 °C
- ΔTm 29 (Haspin): -1.2 °C
- ΔTm 29 (AKT3): 0.8 °C
